Patent publication US20090192187A1, “DRY POWDER FORMULATION COMPRISING AN ANTIC[…]” (Chiesi Farmaceutici S.p.A., priority 2008, published 2009)
Where a name gives a salt, the structure may show the parent alone.

Columns and labels:
[1] = system: Ach-induced increase in Penh (airway reactivity); assay: Bronchodilation activity: barometric plethysmography, acetylcholine challenge after nebulised compound; format: in vivo, guinea pig; conditions: for bronchoprotective effect: twenty-four hours
Experimental: Airway reactivity is measured using barometric plethysmography (Buxco, USA). Male guinea pigs (500-600 g) are individually placed in plexiglass chambers. After an acclimatisation period, animals are exposed to nebulised saline for 1 minute to obtain airway baseline reading. This is followed by a 1 minute challenge with nebulised acetylcholine (Ach)-2.5 mg/mL. After 60 minutes, 5 minute nebulisation of vehicle or the compound I′ in the range 2.5-250 μM are applied, and Ach challenge is then repeated after 2, 5, 24, 48 and 72 hours (h). Recording of pressure fluctuations in the chambers are taken for 5 minutes after each nebulisation and analysed to calculate Enhanced Pause (Penh). Airway reactivity is expressed as percentage increase in Penh compared with Penh values from the nebulisation of vehicle.

[2] = Estimation of lung levels after nebulisation; format: in vivo, guinea pig; conditions: nebulisation with submaximal bronchodilator activity, 2 hours after treatment
muscarinic receptors = assay: Receptor potency and duration of action compared with tiotropium bromide
M2 muscarinic receptors = molecular target: T1, M2 muscarinic receptors (Homo sapiens, UniProt P08172); assay: Duration of action / dissociation kinetics at M2 receptors; conditions: compared with tiotropium bromide
T1 sequence (P08172 1-466): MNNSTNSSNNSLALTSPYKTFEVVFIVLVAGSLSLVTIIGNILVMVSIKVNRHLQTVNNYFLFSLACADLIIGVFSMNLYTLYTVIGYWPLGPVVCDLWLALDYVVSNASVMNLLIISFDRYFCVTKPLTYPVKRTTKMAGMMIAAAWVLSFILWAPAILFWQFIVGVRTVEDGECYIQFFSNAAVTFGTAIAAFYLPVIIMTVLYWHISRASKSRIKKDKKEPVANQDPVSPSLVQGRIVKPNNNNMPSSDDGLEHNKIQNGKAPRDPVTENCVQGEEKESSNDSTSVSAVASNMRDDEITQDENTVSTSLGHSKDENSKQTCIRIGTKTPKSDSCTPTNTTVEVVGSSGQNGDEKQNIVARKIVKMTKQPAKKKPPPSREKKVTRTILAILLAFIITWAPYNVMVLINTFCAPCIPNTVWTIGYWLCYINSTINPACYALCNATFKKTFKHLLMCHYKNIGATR

“3-[[[(3-fluorophenyl)[(3,4,5-trifluoro phenyl)methyl]amino]carbonyl]oxy]-1-[2-oxo-2-(2-thienyl)ethyl]-1-azoniabicyclo[2.2.2]octane [compound 1′]” gave a bronchoprotective effect ([1]; 25 μM inhaled) of 63.7±15.1%, an inhibition ([1]; 50 μM inhaled, 48 hours) of 49.2±23.2% and a bronchoprotective effect ([1]; 50 μM inhaled) of 87.1±8.7%. The “maximal effect, inhibition of Ach-induced increase in Penh” value ([1]; 50 μM nebulised, two hours after end of nebulisation) was 99.6±0.4, the “effect (inhibition of Ach-induced increase in Penh)” value ([1]; 250 μM inhaled, 48 hours) was 83.0±16.1% and the residual activity ([1]; 250 μM inhaled, 72 hours) was 34.8±20.9%. The “time-course of the effect (duration of action)” value ([1]; increasing dose) was “increasing duration of action with increasing dose”, the duration of effect ([1]; inhalation of lower concentrations (below 25 μM)) was ≤ 5 h and the “dose dependence of inhibition of Ach-induced increase in Penh” value ([1]; two hours after end of nebulisation, 2.5-250 μM) was “dose-dependently inhibited”. For the same compound, the “retained dose in the target organ (lung)” value [2] was “about 50 μg/kg”.
In the case of O=C(C[N+]12CCC(CC1)C(OC(=O)N(Cc1cc(F)c(F)c(F)c1)c1cccc(F)c1)C2)c1cccs1 (stereo not shown) [chloride salt of compound 1, 3-[[[(3-fluorophenyl)[(3,4,5-trifluorophenyl)methyl]amino]carbonyl]oxy]-1-[2-oxo-2-(2-thienyl)ethyl]-1-azoniabicyclo[2.2.2]octane], the duration of action (muscarinic receptors) is reported as “equieffective to tiotropium bromide”, the receptor potency (muscarinic receptors) is reported as “equieffective to tiotropium bromide” and the “duration of action on the M2 receptors” value (M2 muscarinic receptors) is reported as “significantly short-acting”.
